# Data published in ChEMBL document CHEMBL4219190, “Studies on synthesis of novel pyrido[2,3-d]pyrimidine derivatives, evaluation of their antimicrobial activity and molecular docking” (Bioorg Med Chem Lett, 2018).
# Calls of active or inactive are those of the source. The rule behind the calls is not given here.
# Assays:
# Bacillus subtilis [1] = assay: Antibacterial activity against Bacillus subtilis MTCC 121 after 24 hrs by well diffusion method; format: functional
# Staphylococcus aureus [2] = assay: Antibacterial activity against Staphylococcus aureus MTCC 96 after 24 hrs by well diffusion method; format: functional
# Staphylococcus aureus [3] = assay: Antibacterial activity against Staphylococcus aureus MLS16 MTCC 2940 after 24 hrs by well diffusion method; format: functional
# Micrococcus luteus [4] = assay: Antibacterial activity against Micrococcus luteus MTCC 2470 after 24 hrs by well diffusion method; format: functional
# Raoultella planticola [5] = assay: Antibacterial activity against Klebsiella planticola MTCC 530 after 24 hrs by well diffusion method; format: functional
# Escherichia coli [6] = assay: Antibacterial activity against Escherichia coli MTCC 739 after 24 hrs by well diffusion method; format: functional
# Pseudomonas aeruginosa [7] = assay: Antibacterial activity against Pseudomonas aeruginosa MTCC 2453 after 24 hrs by well diffusion method; format: functional
# Bacillus subtilis [8] = assay: Bactericidal activity against Bacillus subtilis MTCC 121 incubated for 24 hrs followed by transfer of microbial suspension to Mueller Hinton agar plates and measured after 24 hrs post transfer; format: functional
# Staphylococcus aureus [9] = assay: Bactericidal activity against Staphylococcus aureus MTCC 96 incubated for 24 hrs followed by transfer of microbial suspension to Mueller Hinton agar plates and measured after 24 hrs post transfer; format: functional
# Staphylococcus aureus [10] = assay: Bactericidal activity against Staphylococcus aureus MLS16 MTCC 2940 incubated for 24 hrs followed by transfer of microbial suspension to Mueller Hinton agar plates and measured after 24 hrs post transfer; format: functional
# Micrococcus luteus [11] = assay: Bactericidal activity against Micrococcus luteus MTCC 2470 incubated for 24 hrs followed by transfer of microbial suspension to Mueller Hinton agar plates and measured after 24 hrs post transfer; format: functional
# Raoultella planticola [12] = assay: Bactericidal activity against Klebsiella planticola MTCC 530 incubated for 24 hrs followed by transfer of microbial suspension to Mueller Hinton agar plates and measured after 24 hrs post transfer; format: functional
# Escherichia coli [13] = assay: Bactericidal activity against Escherichia coli MTCC 739 incubated for 24 hrs followed by transfer of microbial suspension to Mueller Hinton agar plates and measured after 24 hrs post transfer; format: functional
# Pseudomonas aeruginosa [14] = assay: Bactericidal activity against Pseudomonas aeruginosa MTCC 2453 incubated for 24 hrs followed by transfer of microbial suspension to Mueller Hinton agar plates and measured after 24 hrs post transfer; format: functional
# Bacillus subtilis [15] = assay: Antibiofilm activity against Bacillus subtilis MTCC 121 after 24 hrs by crystal violet staining-based assay; format: functional, organism-based
# Staphylococcus aureus [16] = assay: Antibiofilm activity against Staphylococcus aureus MTCC 96 after 24 hrs by crystal violet staining-based assay; format: functional, organism-based
# Staphylococcus aureus [17] = assay: Antibiofilm activity against Staphylococcus aureus MLS16 MTCC 2940 after 24 hrs by crystal violet staining-based assay; format: functional, organism-based
# Pseudomonas aeruginosa [18] = assay: Antibiofilm activity against Pseudomonas aeruginosa MTCC 2453 after 24 hrs by crystal violet staining-based assay; format: functional, organism-based
# Raoultella planticola [19] = assay: Antibiofilm activity against Klebsiella planticola MTCC 530 after 24 hrs by crystal violet staining-based assay; format: functional, organism-based
# [20] = Staphylococcus aureus, MTCC 96, 24 h, read-out: IC50
# [21] = Klebsiella planticola, MTCC 530, 24 h, read-out: IC50
MIC (Bacillus subtilis [1]),MIC (Staphylococcus aureus [2]),MIC (Staphylococcus aureus [3]),MIC (Micrococcus luteus [4]),MIC (Escherichia coli [6]),MIC (Pseudomonas aeruginosa [7]),"MIC (Staphylococcus aureus [2]; MTCC 96, 24 h) [µg/mL]",IC50 (Staphylococcus aureus [16]; [20]) [µg/mL],IC50 (Bacillus subtilis [15]),IC50 (Staphylococcus aureus [17]),Structure (SMILES),"MIC (Raoultella planticola [5]; MTCC 530, 24 h) [µg/mL]",MIC (Raoultella planticola [5]),"MBC (Staphylococcus aureus [9]; MTCC 96, 24 h) [µg/mL]","MBC (Raoultella planticola [12]; MTCC 530, 24 h) [µg/mL]",IC50 (Raoultella planticola [19]; [21]) [µg/mL],MBC (Bacillus subtilis [8]),MBC (Staphylococcus aureus [10]),MBC (Micrococcus luteus [11]),MBC (Escherichia coli [13]),MBC (Pseudomonas aeruginosa [14]),further results
inactive,inactive,inactive,inactive,inactive,inactive,–,–,–,–,COc1ccc(-c2nc(C(=O)NCCO)nc3nc(-c4ccccc4)cc(C(F)(F)F)c23)cc1,–,inactive,–,–,–,–,–,–,–,–,–
inactive,inactive,inactive,inactive,inactive,inactive,–,–,–,–,COc1ccc(-c2nc(C(=O)N3CCN(CCO)CC3)nc3nc(-c4ccccc4)cc(C(F)(F)F)c23)cc1,–,inactive,–,–,–,–,–,–,–,–,–
inactive,inactive,inactive,inactive,inactive,inactive,–,–,–,–,CCCNC(=O)c1nc(-c2ccc(OC)cc2)c2c(C(F)(F)F)cc(-c3ccccc3)nc2n1,–,inactive,–,–,–,–,–,–,–,–,–
inactive,inactive,inactive,inactive,inactive,inactive,–,–,Not Active,Not Active,COc1ccc(-c2nc(C(=O)N3CCCC3)nc3nc(-c4ccccc4)cc(C(F)(F)F)c23)cc1,15.6,–,–,15.6,10.8,inactive,inactive,inactive,inactive,inactive,MBC (Staphylococcus aureus [9]): inactive; IC50 (Staphylococcus aureus [16]): Not Active; IC50 (Pseudomonas aeruginosa [18]): Not Active

# Second part, the compound before the results:
Structure (SMILES),MIC (Bacillus subtilis [1]),MIC (Staphylococcus aureus [2]),MIC (Staphylococcus aureus [3]),MIC (Micrococcus luteus [4]),MIC (Escherichia coli [6]),MIC (Pseudomonas aeruginosa [7]),"MIC (Staphylococcus aureus [2]; MTCC 96, 24 h) [µg/mL]",IC50 (Staphylococcus aureus [16]; [20]) [µg/mL],IC50 (Bacillus subtilis [15]),IC50 (Staphylococcus aureus [17]),"MIC (Raoultella planticola [5]; MTCC 530, 24 h) [µg/mL]",MIC (Raoultella planticola [5]),"MBC (Staphylococcus aureus [9]; MTCC 96, 24 h) [µg/mL]","MBC (Raoultella planticola [12]; MTCC 530, 24 h) [µg/mL]",IC50 (Raoultella planticola [19]; [21]) [µg/mL],MBC (Bacillus subtilis [8]),MBC (Staphylococcus aureus [10]),MBC (Micrococcus luteus [11]),MBC (Escherichia coli [13]),MBC (Pseudomonas aeruginosa [14]),further results
CCNC(=O)c1nc(-c2ccccc2)c2c(C(F)(F)F)cc(-c3ccccc3)nc2n1,inactive,inactive,inactive,inactive,inactive,inactive,–,–,–,–,31.2,–,–,–,–,–,–,–,–,–,–
COc1ccc(-c2nc(C(=O)NCc3ccccc3)nc3nc(-c4ccccc4)cc(C(F)(F)F)c23)cc1,inactive,inactive,inactive,inactive,inactive,inactive,–,–,–,–,–,inactive,–,–,–,–,–,–,–,–,–
COc1ccc(-c2nc(C(=O)NCc3ccco3)nc3nc(-c4ccccc4)cc(C(F)(F)F)c23)cc1,inactive,inactive,inactive,inactive,inactive,inactive,–,–,–,–,–,inactive,–,–,–,–,–,–,–,–,–
O=C(O)c1cn(C2CC2)c2cc(N3CCNCC3)c(F)cc2c1=O [CIPROFLOXACIN],–,–,–,–,–,–,0.9,0.21,–,–,0.9,–,0.58,0.58,0.29,–,–,–,–,–,"MBC (Bacillus subtilis [8]; MTCC 121, 24 h): 0.58 µg/mL; MIC (Bacillus subtilis [1]; MTCC 121, 24 h): 0.9 µg/mL; MIC (Staphylococcus aureus [3]; MLS16 MTCC 2940, 24 h): 0.9 µg/mL; MIC (Micrococcus luteus [4]; MTCC 2470, 24 h): 0.9 µg/mL; MIC (Escherichia coli [6]; MTCC 739, 24 h): 0.9 µg/mL; MIC (Pseudomonas aeruginosa [7]; MTCC 2453, 24 h): 0.9 µg/mL; MBC (Staphylococcus aureus [10]; MLS16 MTCC 2940, 24 h): 1.17 µg/mL; MBC (Micrococcus luteus [11]; MTCC 2470, 24 h): 1.17 µg/mL; MBC (Escherichia coli [13]; MTCC 739, 24 h): 0.58 µg/mL; MBC (Pseudomonas aeruginosa [14]; MTCC 2453, 24 h): 1.17 µg/mL; IC50 (Bacillus subtilis [15]; Bacillus subtilis, MTCC 121, 24 h, read-out: IC50): 0.23 µg/mL; IC50 (Staphylococcus aureus [17]; Staphylococcus aureus, MLS16 MTCC 2940, 24 h, read-out: IC50): 0.24 µg/mL; IC50 (Pseudomonas aeruginosa [18]; Pseudomonas aeruginosa, MTCC 2453, 24 h, read-out: IC50): 0.32 µg/mL"
O=C(NCc1ccco1)c1nc(-c2ccccc2)c2c(C(F)(F)F)cc(-c3ccccc3)nc2n1,inactive,–,inactive,inactive,inactive,inactive,7.8,2.7,Not Active,Not Active,15.6,–,15.6,31.2,5.4,inactive,inactive,inactive,inactive,inactive,IC50 (Pseudomonas aeruginosa [18]): Not Active
COc1ccc(-c2nc(C(=O)NC3CCCCC3)nc3nc(-c4ccccc4)cc(C(F)(F)F)c23)cc1,inactive,–,inactive,inactive,inactive,inactive,7.8,2.7,Not Active,Not Active,–,inactive,7.8,–,–,inactive,inactive,inactive,inactive,inactive,MBC (Raoultella planticola [12]): inactive; IC50 (Pseudomonas aeruginosa [18]): Not Active; IC50 (Raoultella planticola [19]): Not Active
